Data on 6 molecules can be found in publication PMC10787698, “Discovery and biocatalytic characterization of opine dehydrogenases by metagenome mining” (Applied Microbiology and Biotechnology, 2024).

Series [1] relates to T1, mODH-582.
T1 construct: N-terminal His-tag, pET14b, E. coli BL21(DE3); codon-optimised synthetic gene; source reads SRR16606022; one of 11 TPA records BK063522-BK063532 (not assigned singly)
Kind of series: NAD(P)H absorbance at […] nm, Michaelis-Menten. The format is biochemical, hot spring metagenome. The following applies: pyruvate 10 mM, NAD(P)H 0.2 mM, 100 mM sodium phosphate pH 8.0, 30 °C; read-out: L-Phe / KM.

For a further series, the system named is T2, mODH-55.
T2 construct: N-terminal His-tag, pET14b, E. coli BL21(DE3); codon-optimised synthetic gene; source reads SRR16606022; one of 11 TPA records BK063522-BK063532 (not assigned singly)
The experiment in a line: NAD(P)H absorbance at […] nm, Michaelis-Menten. To be noted: pyruvate 10 mM, 100 mM sodium phosphate pH 8.0, 30 °C. The format is biochemical, hot spring metagenome.

In a further series the test system is T3, mODH-49.
T3 construct: N-terminal His-tag, pET14b, E. coli BL21(DE3); codon-optimised synthetic gene; source reads SRR16606022; one of 11 TPA records BK063522-BK063532 (not assigned singly)
The experiment in a line: NAD(P)H absorbance at […] nm, Michaelis-Menten. To be noted: pyruvate 10 mM, 100 mM sodium phosphate pH 8.0, 30 °C. In kind it is biochemical, hot spring metagenome.

For series [2], the system named is T1, mODH-582. Kind of series: NAD(P)H absorbance at […] nm, Michaelis-Menten. In kind it is biochemical, hot spring metagenome. To be noted: pyruvate 10 mM, 100 mM sodium phosphate pH 8.0, 30 °C.
For a further series, the system named is T4, mODH-48.
T4 construct: N-terminal His-tag, pET14b, E. coli BL21(DE3); codon-optimised synthetic gene; source reads SRR16606022; one of 11 TPA records BK063522-BK063532 (not assigned singly); identical to an obsolete UniParc entry
Kind of series: NAD(P)H absorbance at […] nm, Michaelis-Menten. The format is biochemical, hot spring metagenome. To be noted: pyruvate 10 mM, 100 mM sodium phosphate pH 8.0, 30 °C.

For another series, the system named is T5, mODH-45.
T5 construct: N-terminal His-tag, pET14b, E. coli BL21(DE3); codon-optimised synthetic gene; source reads SRR16606022; one of 11 TPA records BK063522-BK063532 (not assigned singly)
The experiment in a line: NAD(P)H absorbance at […] nm, Michaelis-Menten. To be noted: pyruvate 10 mM, 100 mM sodium phosphate pH 8.0, 30 °C. The format is biochemical, hot spring metagenome.

In another series the test system is T6, mODH-47.
T6 construct: N-terminal His-tag, pET14b, E. coli BL21(DE3); codon-optimised synthetic gene; source reads SRR16606022; one of 11 TPA records BK063522-BK063532 (not assigned singly)
Kind of series: NAD(P)H absorbance at […] nm, Michaelis-Menten. The format is biochemical, hot spring metagenome. To be noted: pyruvate 10 mM, 100 mM sodium phosphate pH 8.0, 30 °C.

Substrate in series [3]: N[C@@H](Cc1ccccc1)C(=O)O
Kind of series: purified protein. To be noted: pyruvate 10 mM, NAD(P)H 0.2 mM, 100 mM sodium phosphate pH 8.0, 30 °C. The format is biochemical, Arthrobacter sp. 1C.

Substrate in series [4]: N[C@@H](Cc1ccccc1)C(=O)O
The experiment in a line: purified protein, by the assay type. More on the design: Michaelis-Menten kinetics of reductive amination with pyruvate, NAD(P)H consumption by absorbance at 340 nm, 30 °C, pH 8.0. The protocol: (§1) Enzyme activities were measured spectrophotometrically at 30 °C in 96-well half-area plates in a Thermo Scientific™ Multiskan SkyHigh Microplate Spectrophotometer (Thermo Fisher Scientific Inc., Waltham, MA, USA). Standard assays were carried out by using 15 mM amino acid and 0.2 mM NAD(P)H in 100 mM sodium phosphate buffer (pH = 8.0). The reaction was started by the addition of 10 mM pyruvate. The decrease in absorbance was monitored at 340 nm. Initial velocities (v0) were calculated from the linear section of the plots using an NAD(P)H calibration. For the determination of kinetic constants, amino acid concentrations were varied between 1 and 30 mM, while cofactor concentrations were between 0.04 and 0.5 mM. Depending on the specific activities of each enzyme, enzyme concentrations were fixed between 0.015 and 1.5 µM (Tables S9-S12). Kinetic constants were determined from the Michaelis–Menten plots using GraphPad Prism software (Tables S9-S12, Figures S15-S18). Heat stability experiments were carried out by incubating the enzymes at 40, 50, or 60 °C for 1 h before measuring their specific activities. Nine selected mODH genes as well as the coding sequence of ArODH were codon optimized for E. coli, synthesized by Genescript and cloned into pET14b vector using NdeI and BamHI cloning sites resulting in N-terminal His-tag proteins (for protein and nucleotide sequences see Table S2). Plasmids were transformed into E.coli BL21(DE3) chemically competent cells, and 5 mL overnight cultures were grown in Luria–Bertani (LB) medium supplemented with carbenicillin. Then, 4 mL was added to 500 mL fresh LB medium. The culture was grown at 37 °C to OD = 0.5 and induced by addition of 0.5 mM IPTG. The flasks were then incubated in a shaker at 18 °C overnight. The cells were harvested by centrifugation at 4000 rpm, 4 °C for 30 min. The pellets were resuspended in lysis buffer (50 mM Tris pH = 8.5, 300 mM NaCl, 1 mM benzamidine, 2 mM [compound left out] [compound left out], 1 mM Tris(2-carboxyethyl)phosphine (TCEP), DNase) and lysed by ultrasonication. The suspension was centrifuged at 11,000 rpm, 4 °C for 30 min. The supernatant was loaded onto equilibrated Ni–NTA column and washed with 15 mM imidazole in lysis buffer. The bound protein was eluted with 250 mM imidazole in lysis buffer and then dialyzed in 50 mM Tris pH = 8.5. The resulting solution was aliquoted after addition of 10% glycerol and then stored at − 20 °C until further use. Total protein concentration was determined based on absorption at 280 nm measured on a NanoDrop spectrophotometer. With this method, six mODHs and ArODH could be purified (see Table S2). Three mODHs were not expressed in soluble form in this experimental setting.

Substrate in series [5]: NC(=O)C1=CN([C@@H]2O[C@H](COP(=O)(O)OP(=O)(O)OC[C@H]3O[C@@H](n4cnc5c(N)ncnc54)[C@H](O)[C@@H]3O)[C@@H](O)[C@H]2O)C=CC1
Kind of series: purified protein, by the assay type. Also on record: Michaelis-Menten kinetics of reductive amination with pyruvate, NAD(P)H consumption by absorbance at 340 nm, 30 °C, pH 8.0. The protocol: as §1

Substrate in series [6]: N[C@@H](CC(=O)O)C(=O)O
Kind of series: purified protein. To be noted: pyruvate 10 mM, NAD(P)H 0.2 mM, 100 mM sodium phosphate pH 8.0, 30 °C.

Where [7] appears, read: L-Asp 15 mM, read-out: NADH / KM.
Where [8] appears, read: L-Asp 15 mM, read-out: NADPH / KM.
The mark [9] stands for this setting: NAD(P)H 0.2 mM, read-out: L-Asp / KM.

Like-named read-outs stand apart in the source and are kept apart here.

With `N[C@@H](Cc1ccccc1)C(=O)O` [L-Phe], the Km in the series on mODH-582 [1] worked out at 32700 ± 4700 µM.

On to `NC(=O)C1=CN([C@@H]2O[C@H](COP(=O)(O)OP(=O)(O)OC[C@H]3O[C@@H](n4cnc5c(N)ncnc54)[C@H](O)[C@@H]3O)[C@@H](O)[C@H]2O)C=CC1` [NADH], for which the Km with mODH-55 (setting [7]) was determined as 442 ± 63 µM; in the series with mODH-49 (setting [7]) it was 1830 ± 423 µM; in the series with mODH-582 [2] (setting [7]), 29 ± 11 µM; in the series with mODH-48 (setting [7]), 93 ± 15 µM; in the series with mODH-45 (setting [7]), 447 ± 64 µM.

With `NC(=O)C1=CN([C@@H]2O[C@H](COP(=O)(O)OP(=O)(O)OC[C@H]3O[C@@H](n4cnc5c(N)ncnc54)[C@H](OP(=O)(O)O)[C@@H]3O)[C@@H](O)[C@H]2O)C=CC1` [NADPH], the Km was 68 ± 13 µM in the series with mODH-55 (setting [8]); 93 ± 21 µM in the series on mODH-47 (setting [8]); 85 ± 17 µM with mODH-49 (setting [8]); 318 ± 112 µM with mODH-582 [2] (setting [8]); 17 ± 7 µM with mODH-48 (setting [8]); 118 ± 24 µM with mODH-45 (setting [8]).

`N[C@@H](CC(=O)O)C(=O)O` [compound 3, L-Asp]: the Km in the series on mODH-55 (setting [9]) was 1500 ± 200 µM; in the series on mODH-47 (setting [9]), 1200 ± 300 µM; in the series on mODH-49 (setting [9]), 15000 ± 2300 µM; in the series with mODH-582 [2] (setting [9]), 24800 ± 4600 µM; in the series with mODH-48 (setting [9]) it was 500 ± 100 µM; with mODH-45 (setting [9]) it was 21500 ± 5300 µM.

B1: ArODH (Arthrobacter sp. 1C) (protein)
chain: MIESKTYAVLGLGNGGHAFAAYLALKGQSVLAWDIDAQRIKEIQDRGAIIAEGPGLAGTAHPDLLTSDIGLAVKDADVILIVVPAIHHASIAANIASYISEGQLIILNPGATGGALEFRKILRENGAPEVTIGETSSMLFTCRSERPGQVTVNAIKGAMDFACLPAAKAGWALEQIGSVLPQYVAVENVLHTSLTNVNAVMHPLPTLLNAARCESGTPFQYYLEGITPSVGSLAEKVDAERIAIAKAFDLNVPSVCEWYKESYGQSPATIYEAVQGNPAYRGIAGPINLNTRYFFEDVSTGLVPLSELGRAVNVPTPLIDAVLDLISSLIDTDFRKEGRTLEKLGLSGLTAAGIRSAVE
notes: N-terminal His-tag, pET14b, E. coli BL21(DE3); codon-optimised synthetic gene
Turning to B1, in the series “purified protein [3]”, the Km is 1400 ± 500 µM, the turnover number (kcat) was 861 ± 70 s⁻¹ and the kcat/Km worked out at 630000 M⁻¹ s⁻¹. Also, in series [4], the Km came to 18100 ± 4500 µM, the Vmax is 0.001 µmol/min and the kcat was found to be 11.1 ± 1.5 s⁻¹. Further, in series [5], the Km came to 292 ± 77 µM, the Vmax came out at 0.11 µmol/min and the kcat was determined as 1240 ± 174 s⁻¹.

B2: ArODH (Arthrobacter sp. 1C; A111R/N198G) (protein)
chain: MIESKTYAVLGLGNGGHAFAAYLALKGQSVLAWDIDAQRIKEIQDRGAIIAEGPGLAGTAHPDLLTSDIGLAVKDADVILIVVPAIHHASIAANIASYISEGQLIILNPGRTGGALEFRKILRENGAPEVTIGETSSMLFTCRSERPGQVTVNAIKGAMDFACLPAAKAGWALEQIGSVLPQYVAVENVLHTSLTNVGAVMHPLPTLLNAARCESGTPFQYYLEGITPSVGSLAEKVDAERIAIAKAFDLNVPSVCEWYKESYGQSPATIYEAVQGNPAYRGIAGPINLNTRYFFEDVSTGLVPLSELGRAVNVPTPLIDAVLDLISSLIDTDFRKEGRTLEKLGLSGLTAAGIRSAVE
Take B2: in the series “purified protein [6]”, the Km came out at 58300 ± 19600 µM, the kcat was 2.8 s⁻¹ and the kcat/Km turned out to be 50 M⁻¹ s⁻¹.

A word on the kcat: it is the number of substrate molecules converted per active site and unit of time at saturation. By kcat/Km is commonly meant the second-order rate constant that governs catalysis at low substrate concentration. What is called Vmax is the rate approached at saturating substrate.
